Type in all cases: biochemical
The target in one assay is FXa (Homo sapiens (Human), UniProt P00742). Put plainly: Determination of related protease inhibition: FXa (fluorogenic substrate at Km). Conditions: 25° C. The protocol:
(§1) Determination of Related Protease Inhibition
(§2) In vitro inhibition of related proteases was determined using an ([…] assay based on standard literature methods (see e.g. Shori et al., Biochem. Pharmacol., 1992, 43, 1209; Bouckaert et al., European Journal of Medicinal Chemistry 110 (2016) 181). Human serine protease enzymes Plasma Kallikrein, KLK1, FXa, Plasmin, Thrombin and Trypsin were assayed for enzymatic activity using an appropriate fluorogenic substrate at Km concentration, FXIa at fixed substrate concentration of 100 μM, and various concentrations of the test compound. Protease activity was measured by monitoring the accumulation of liberated fluorescence from the substrate over […]. The linear rate of fluorescence increase per minute was expressed as percentage (%) activity. IC50 values were calculated as the concentration of inhibitor giving 50% inhibition of the uninhibited enzyme activity (100%).

Another assay concerns the target KLK1 (Homo sapiens (Human), UniProt P06870). As to the kind of experiment: Determination of related protease inhibition: KLK1 (fluorogenic substrate at Km). Particulars: 25° C. As for the experimental part:
as §1, §2

The target in a further assay is Human Factor XIIa (Homo sapiens (Human), UniProt P00748). As to the kind of experiment: Determination of FXIIa inhibition (fluorogenic substrate H-DPro-Phe-Arg-AFC, IC50 assay). Conditions: substrate H-DPro-Phe-Arg-AFC at Km, 25° C.; for IC50: class scale A-G. Put shortly: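 IC50 derived from % remaining activity, taken as the linear fluorescence rate over a 5 min read at 25° C. Substrate H-DPro-Phe-Arg-AFC was used at its Km (Michaelis-Menten) with human FXIIa and serial compound dilutions, 25° C.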
Human Factor XIIa, sequence (P00748 373-615): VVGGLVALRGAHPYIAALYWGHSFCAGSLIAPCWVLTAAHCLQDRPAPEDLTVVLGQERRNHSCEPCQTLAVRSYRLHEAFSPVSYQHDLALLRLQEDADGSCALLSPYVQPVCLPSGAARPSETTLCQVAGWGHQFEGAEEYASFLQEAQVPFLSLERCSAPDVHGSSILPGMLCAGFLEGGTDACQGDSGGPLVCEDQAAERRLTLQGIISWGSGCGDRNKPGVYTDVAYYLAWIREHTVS

We go through 17 compounds from patent US20240059691A1 (KALVISTA PHARMACEUTICALS LIMITED, priority 2020, published 2024).

The structures appear in SMILES notation. Some results are limits rather than exact numbers.

FXa, sequence (P00742 235-488): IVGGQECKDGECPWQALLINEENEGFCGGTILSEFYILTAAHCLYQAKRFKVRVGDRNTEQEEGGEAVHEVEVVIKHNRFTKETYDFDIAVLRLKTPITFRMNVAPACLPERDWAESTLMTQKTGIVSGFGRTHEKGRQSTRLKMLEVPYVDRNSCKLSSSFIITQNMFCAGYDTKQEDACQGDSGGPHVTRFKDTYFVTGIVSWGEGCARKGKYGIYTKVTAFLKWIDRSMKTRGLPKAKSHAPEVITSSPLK
FXa, sequence (P00742 41-179 partner): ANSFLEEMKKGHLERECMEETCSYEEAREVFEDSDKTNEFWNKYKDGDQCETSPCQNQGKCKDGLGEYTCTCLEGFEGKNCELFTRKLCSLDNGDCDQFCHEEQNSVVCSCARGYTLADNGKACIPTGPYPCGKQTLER
KLK1, sequence (P06870 25-262): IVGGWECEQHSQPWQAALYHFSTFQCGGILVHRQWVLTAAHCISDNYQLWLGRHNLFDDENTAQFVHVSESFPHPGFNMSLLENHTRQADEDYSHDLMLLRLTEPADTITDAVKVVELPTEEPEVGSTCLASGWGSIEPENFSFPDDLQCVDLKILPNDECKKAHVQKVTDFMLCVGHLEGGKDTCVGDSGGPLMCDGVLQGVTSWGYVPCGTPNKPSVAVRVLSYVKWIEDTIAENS

Broadly, the IC50 is the concentration that inhibits the measured activity by half. Consider `Nc1nccc2c(N3CCCC3c3ccc(N4CCn5c(nnc5C(F)(F)F)C4)nc3)cccc12` (single isomer, unassigned) [Example 10003, (S*)-5-(2-(6-(3-(trifluoromethyl)-5,6-dihydro-[1,2,4]triazolo[4,3-a]pyrazin-7(8H)-yl)pyridin-3-yl)pyrrolidin-1-yl)isoquinolin-1-amine], for which the IC50 against FXa is over 40 µM; against KLK1 it was over 40 µM; at Human Factor XIIa it was 3 to 10 µM.

For `CC1CN(c2ccc(CNc3cccc4c(N)nccc34)cn2)Cc2nnc(C(F)(F)F)n21` (stereo not shown) [Example 1287, N5-((6-(5-methyl-3-(trifluoromethyl)-5,6-dihydro-[1,2,4]triazolo[4,3-a]pyrazin-7(8H)-yl)pyridin-3-yl)methyl)isoquinoline-1,5-diamine], the IC50 against FXa is over 40 µM; at KLK1, 1 to 3 µM; at Human Factor XIIa, 1 to 3 µM.

Turning to `Nc1nccc2c(N3CCCC3c3ccc(N4CCn5c(nnc5C(F)(F)F)C4)nc3)cccc12` (single isomer, unassigned) [Example 10004, (R*)-5-(2-(6-(3-(trifluoromethyl)-5,6-dihydro-[1,2,4]triazolo[4,3-a]pyrazin-7(8H)-yl)pyridin-3-yl)pyrrolidin-1-yl)isoquinolin-1-amine], the IC50 against FXa is over 40 µM; against KLK1, 10 to 40 µM; on Human Factor XIIa, 0.3 to 1 µM.

For the compound `CC(C)(O)c1cn(-c2ccc(CNc3cccc4c(N)nccc34)cn2)nn1` [Example 1291, 2-(1-(5-(((1-aminoisoquinolin-5-yl)amino)methyl)pyridin-2-yl)-1H-1,2,3-triazol-4-yl)propan-2-ol], the IC50 is over 40 µM against FXa, 10 to 40 µM against KLK1 and 3 to 10 µM against Human Factor XIIa.

Regarding `CC(C)Oc1cc(NCc2ccc(N3CCn4c(nnc4C(F)(F)F)C3)nc2)ccn1` [Example 1290, 2-isopropoxy-N-((6-(3-(trifluoromethyl)-5,6-dihydro-[1,2,4]triazolo[4,3-a]pyrazin-7(8H)-yl)pyridin-3-yl)methyl)pyridin-4-amine], the IC50 on FXa and against KLK1 was over 40 µM in each case.

In the case of `Cn1ncc2c1CCN(c1ccc(CNc3cccc4c(N)nccc34)cn1)C2` [Example 1286, N5-((6-(1-methyl-1,4,6,7-tetrahydro-5H-pyrazolo[4,3-c]pyridin-5-yl)pyridin-3-yl)methyl)isoquinoline-1,5-diamine], the IC50 against FXa is over 40 µM; on KLK1, 1 to 3 µM; at Human Factor XIIa, 0.3 to 1 µM.

For `FC(F)(F)c1nnc2n1CCN(c1ccc(CNc3ccn4ccnc4c3)cn1)C2` [Example 1288, N-((6-(3-(trifluoromethyl)-5,6-dihydro-[1,2,4]triazolo[4,3-a]pyrazin-7(8H)-yl)pyridin-3-yl)methyl)imidazo[1,2-a]pyridin-7-amine], the IC50 on FXa is over 40 µM; on KLK1, over 100 µM.

As to `Cc1nc(N2CCn3c(nnc3C(F)(F)F)C2)ccc1CNc1cccc2c(N)nccc12` [Example 1284, N5-((2-methyl-6-(3-(trifluoromethyl)-5,6-dihydro-[1,2,4]triazolo[4,3-a]pyrazin-7(8H)-yl)pyridin-3-yl)methyl)isoquinoline-1,5-diamine], the figures for the IC50 at FXa, against KLK1 and against Human Factor XIIa were over 40 µM, 3 to 10 µM and 0.3 to 1 µM, respectively.

With `Nc1nccc2c(N3CCCC3c3ccc(N4CCn5c(nnc5C(F)(F)F)C4)nc3)cccc12` (racemic) [Example 10002, 5-(2-(6-(3-(Trifluoromethyl)-5,6-dihydro-[1,2,4]triazolo[4,3-a]pyrazin-7(8H)-yl)pyridin-3-yl)pyrrolidin-1-yl)isoquinolin-1-amine], the IC50 was over 40 µM against FXa, 10 to 40 µM on KLK1 and 1 to 3 µM on Human Factor XIIa.

Take `CC1c2nnc(C(F)(F)F)n2CCN1c1ccc(CNc2cccc3c(N)nccc23)cn1` (stereo not shown) [Example 1285, N5-((6-(8-methyl-3-(trifluoromethyl)-5,6-dihydro-[1,2,4]triazolo[4,3-a]pyrazin-7(8H)-yl)pyridin-3-yl)methyl)isoquinoline-1,5-diamine]: the IC50 against FXa is over 40 µM; against KLK1, 3 to 10 µM; at Human Factor XIIa, 0.3 to 1 µM.

For the compound `Cc1cc(NCc2ccc(N3CCn4c(nnc4C(F)(F)F)C3)nc2)c2cc(Cl)[nH]c2n1` [Example 1293, 2-chloro-6-methyl-N-((6-(3-(trifluoromethyl)-5,6-dihydro-[1,2,4]triazolo[4,3-a]pyrazin-7(8H)-yl)pyridin-3-yl)methyl)-1H-pyrrolo[2,3-b]pyridin-4-amine], the IC50 against FXa and at KLK1 was over 40 µM each time.

For the compound `N#Cc1cc(NCc2ccc(N3CCn4c(nnc4C(F)(F)F)C3)nc2)c2cc(Cl)[nH]c2n1` [Example 1292], the IC50 on FXa and against KLK1 was over 40 µM each time. The “Human FXIIa IC50 (nM): test compounds that did not achieve 50% inhibition” value at Human Factor XIIa (class scale H1-H3 for compounds that did not achieve 50% inhibition) was “H1 (>20% inhibition @ 40 μM)”.

As to `FC(F)(F)c1nnc2n1CCN(c1ccc(CNc3cnc4[nH]cc(Cl)c4c3)cn1)C2` [Example 1289, 3-chloro-N-((6-(3-(trifluoromethyl)-5,6-dihydro-[1,2,4]triazolo[4,3-a]pyrazin-7(8H)-yl)pyridin-3-yl)methyl)-1H-pyrrolo[2,3-b]pyridin-5-amine], the IC50 against FXa and against KLK1 was over 40 µM each time.

Turning to `Cc1cc(N2CCn3c(nnc3C(F)(F)F)C2C)ncc1CNc1cccc2c(N)nccc12` (racemic) [Example 1303, N5-((4-Methyl-6-(8-methyl-3-(trifluoromethyl)-5,6-dihydro-[1,2,4]triazolo[4,3-a]pyrazin-7(8H)-yl)pyridin-3-yl)methyl)isoquinoline-1,5-diamine], the values for the IC50 against KLK1 and on Human Factor XIIa were over 4 µM and 0.01 to 0.1 µM, respectively.

For the compound `CC1Cn2c(nnc2C(F)(F)F)CN1c1ccc(CNc2cccc3c(N)nccc23)cn1` (stereo not shown) [Example 1311, N5-((6-(6-Methyl-3-(trifluoromethyl)-5,6-dihydro-[1,2,4]triazolo[4,3-a]pyrazin-7(8H)-yl)pyridin-3-yl)methyl)isoquinoline-1,5-diamine], the IC50 lay in the range of 3 to 10 µM at KLK1 and 0.01 to 0.1 µM against Human Factor XIIa.

As for `Nc1nccc2c(NCc3cnc(N4CCn5c(nnc5C(F)(F)F)C4)nc3)cccc12` [Example 9003, N5-((2-(3-(trifluoromethyl)-5,6-dihydro-[1,2,4]triazolo[4,3-a]pyrazin-7(8H)-yl)pyrimidin-5-yl)methyl)isoquinoline-1,5-diamine], the IC50 at KLK1 was in the range of 3 to 10 µM; at Human Factor XIIa, 1 to 3 µM.

In the case of `Nc1nccc2c(NCc3ccc(N4CCn5c(nnc5C(F)(F)F)C4)nn3)cccc12` [Example 9004, N5-((6-(3-(Trifluoromethyl)-5,6-dihydro-[1,2,4]triazolo[4,3-a]pyrazin-7(8H)-yl)pyridazin-3-yl)methyl)isoquinoline-1,5-diamine], the IC50 at KLK1 fell in the range of 3 to 10 µM; against Human Factor XIIa it was 0.3 to 1 µM.
